Experimental data taken from paper PMC8344021, “Discovery of Small Molecule Bak Activator for Lung Cancer Therapy” (Theranostics, 2021).

Key:
human Bak protein = target: T1, human Bak protein (Homo sapiens, UniProt Q16611); experiment: Competitive fluorescence polarization (FP) assay with fluorescent Bak BH3 peptide; assay type: binding; conditions: purified human Bak protein, fluorescent Bak BH3 domain peptide; mean ± SD, n = 3
T1 construct: purchased Creative Biomart BAK1-26166TH
Excerpt: (§1) To confirm the binding of BKA-073 with Bak, we first conducted a competitive fluorescence polarization (FP) assay using purified human Bak protein, fluorescent Bak BH3 domain peptide, and BKA-073 as described, [37]-[40]. […] There are multiple amino acid differences in the BH3 domains between Bak and other Bcl2 family members, which helps to explain why BKA-073 only binds to Bak but not to other Bcl2 family members (i.e. Bax, Bcl2, Bcl-XL, Bcl-w and Mcl-1). In addition to the FP assay, isothermal titration calorimetry (ITC) was also employed to measure Bak/BKA-073 binding. […] In addition to human Bak/BKA-073 binding, we measured mouse Bak/BKA-073 binding using ITC.
(1 x 10^5 cells) was transferred to a 5 ml culture tube, followed by the addition of 5 μl of FITC Annexin V and 5 μl propidium iodide (PI). […] Samples were analyzed by flow cytometry (BD FACSCantoTMII, BD Biosciences, San Jose, CA). ∆% cell death was calculated with the formula: (% cell death treated - % cell death non-treated) as described […]
Fluorescence polarization (FP) assay
Fluorescence polarization assay was carried out as described previously. […] The FP values (in millipolarization units) were measured using a fluorescence microplate reader at 485/530 nm (Gemini XPS, Molecular Devices). Data analysis and inhibit ory constant (Ki) value was determined by GraphPad prism software as described. […]

human Bak protein (WT) = target: T2, human Bak protein (WT) (Homo sapiens, UniProt Q16611); experiment: Isothermal titration calorimetry (ITC); conditions: 25 °C, one-site binding
T2 construct: His6; made in house; host or cells: Escherichia coli BL21 DE3
T2 sequence (Q16611 1-186 limits assumed): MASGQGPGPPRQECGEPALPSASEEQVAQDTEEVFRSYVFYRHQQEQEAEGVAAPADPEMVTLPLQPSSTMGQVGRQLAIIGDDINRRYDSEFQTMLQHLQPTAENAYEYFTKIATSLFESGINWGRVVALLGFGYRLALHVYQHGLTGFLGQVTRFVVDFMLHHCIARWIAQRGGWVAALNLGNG
Experimental: The binding affinity of BKA-073 with Bak protein was examined by isothermal titration calorimetry (ITC) assay as described, [28]. ITC assay was carried out in the auto-iTC200 instrument (MicroCal, GE) at 25 °C. Purified recombinant human or mouse Bak protein was loaded into a 96 Deepwell PP plate. BKA-073 compound was then titrated stepwise into the protein for a total of 16 injections. Reference power and initial delay were set as 5 µCal/sec and 60s, respectively. A string speed of 750 rpm was used for the ITC measurements. The binding constant (Kd) value was determined by fitting the titration curve to a one-site binding mode, using the Origin software provided by the manufacturer.
as §1

T1 sequence (Q16611 whole entry, the tested form may be a part): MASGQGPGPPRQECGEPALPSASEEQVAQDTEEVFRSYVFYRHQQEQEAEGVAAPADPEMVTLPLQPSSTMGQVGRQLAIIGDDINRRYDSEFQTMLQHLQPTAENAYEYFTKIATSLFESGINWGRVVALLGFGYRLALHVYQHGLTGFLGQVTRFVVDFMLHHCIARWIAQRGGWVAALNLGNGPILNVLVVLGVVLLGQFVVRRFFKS

COc1ccc2nc3ccccc3c(NCCNCC(C)O)c2c1 (centres unmarked) [BKA-073]
Ki (human Bak protein): 72.3 ± 5.96 nM | Kd (human Bak protein (WT)): 88.6 ± 5.73 nM
